Where a name gives a salt, the structure may show the parent alone.
Tests used:
[1] = target: T1, NLRP3 (Homo sapiens, UniProt Q96P20); assay: THP-1 cells pyroptosis assay
Description: The cells were routinely passaged and grown to confluency (~10^6 cells/ml). On the day of the experiment, THP-1 cells were harvested and resuspended into RPMI medium (without FBS). […] To this diluted cell solution was added LPS (Sigma #L4524) to give a 1 μg/ml Final Assay Concentration (FAC). 40 μl of the final preparation was aliquoted into each well of a 96-well plate. The plate thus prepared was used for compound screening.

[2] = target: T1, NLRP3; assay: Human whole blood IL-1β release assay; type: cell-based; design: Human whole blood in Li-heparin tubes was obtained from healthy donors; from tissue; host or cells: human whole blood from healthy donors; settings: LPS 1 μg/ml, nigericin 10 μM, IL-1β AlphaLisa
From the text: For systemic delivery, the ability to inhibit NLRP3 when the compounds are present within the bloodstream is of great importance.

[3] = target: T2, human P-gp (Homo sapiens, UniProt P08183); assay: Transcellular human P-gp assay (transfected LLC-PK1 cells); type: in vitro ADME; settings: LLC-PK1 cells over-expressing human P-gp
T2 construct: expressed in transfected cells; host or cells: LLC-PK1 cells (porcine kidney epithelial cells)
From the text: The general assay uses transfected LLC-PK1 cells (porcine kidney epithelial cells) over-expressing human or mouse P-gp, cultured on 96 well semi-permeable filter membrane plates, where they form a polarized monolayer with tight junctions, and act as a barrier between the apical and basolateral compartment.
P-gp is expressed in the apical-facing membrane of the monolayer.

[4] = target: T3, hERG cardiac potassium channel (Homo sapiens, UniProt Q12809); assay: hERG screening assay (automated patch clamp, CHO crelox hERG cells); type: cell-based; settings: whole-cell patch clamp, 35-37° C.
T3 construct: host or cells: CHO crelox hERG cell line (Chinese hamster)
From the text: In the drug development process of small molecules, one of the most frequent adverse side effects, leading to the failure of drugs, is the cardiac arrhythmias. […] Having no or low inhibition of the hERG cardiac potassium channel is therefore considered as beneficial.
Ready-to-use frozen instant CHO-hERG cells were cryopreserved at Evotec (Germany) and used directly in the experiments.
The extracellular solution contains (in mM): NaCl 150; KCl 4; CaCl2 1; MgCl2 1; HEPES 10; pH 7.2-7.4 with NaOH, osmolarity 290-330 mOsm. The internal solution contains (in mM): KCl, 10; KF, 100; NaCl, 10; HEPES, 10; EGTA, 20; pH=7.0-7.4 with KOH, osmolarity 260-300 mOsm.
The effects of a compound on hERG K+-currents parameters will be evaluated at 2 concentrations in at least 4 cells.
K+ currents are measured with the patch-voltage-clamp technique in the whole-cell configuration at 35-37° C.
The amplitudes of IKhERG were recorded in each concentration of drug and they were compared to the vehicle control values (taken as 100%) to define fractional blocks. The concentration-response data were fitted with the following relationship:
Concentration-response curves were fitted by non-linear regression analysis using EworkBook suite (ID Business Solutions Ltd, UK). Data fit was done with the 4 Parameter Logistic Model (fit=(A+(B/(1+((x/C)^D)))), where A=0 and B=100).

T1 sequence (Q96P20 whole entry): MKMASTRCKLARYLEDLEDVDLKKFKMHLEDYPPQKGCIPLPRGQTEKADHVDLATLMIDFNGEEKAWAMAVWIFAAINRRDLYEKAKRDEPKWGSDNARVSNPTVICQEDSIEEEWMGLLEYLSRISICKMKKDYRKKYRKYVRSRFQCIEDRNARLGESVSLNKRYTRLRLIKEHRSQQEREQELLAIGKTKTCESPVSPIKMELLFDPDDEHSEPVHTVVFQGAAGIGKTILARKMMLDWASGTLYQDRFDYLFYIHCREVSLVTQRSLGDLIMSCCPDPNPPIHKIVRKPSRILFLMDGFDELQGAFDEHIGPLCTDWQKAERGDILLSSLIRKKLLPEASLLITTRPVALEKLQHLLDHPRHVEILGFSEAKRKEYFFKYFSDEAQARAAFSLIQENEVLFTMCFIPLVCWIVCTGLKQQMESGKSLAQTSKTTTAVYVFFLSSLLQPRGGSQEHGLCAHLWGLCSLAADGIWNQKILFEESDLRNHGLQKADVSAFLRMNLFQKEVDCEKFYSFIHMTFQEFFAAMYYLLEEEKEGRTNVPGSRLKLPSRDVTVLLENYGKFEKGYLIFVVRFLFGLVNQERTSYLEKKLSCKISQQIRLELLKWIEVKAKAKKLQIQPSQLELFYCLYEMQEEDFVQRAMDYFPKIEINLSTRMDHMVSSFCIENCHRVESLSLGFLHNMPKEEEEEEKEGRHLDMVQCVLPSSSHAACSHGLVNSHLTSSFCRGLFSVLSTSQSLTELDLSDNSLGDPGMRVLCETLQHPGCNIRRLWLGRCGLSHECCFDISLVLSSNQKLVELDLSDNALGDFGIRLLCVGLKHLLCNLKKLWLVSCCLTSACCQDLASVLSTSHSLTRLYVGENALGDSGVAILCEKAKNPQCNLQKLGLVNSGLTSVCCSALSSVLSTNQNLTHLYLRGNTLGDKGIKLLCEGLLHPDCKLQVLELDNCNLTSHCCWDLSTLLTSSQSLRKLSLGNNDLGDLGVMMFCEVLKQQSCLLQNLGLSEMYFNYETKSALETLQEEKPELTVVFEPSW
T2 sequence (P08183 whole entry): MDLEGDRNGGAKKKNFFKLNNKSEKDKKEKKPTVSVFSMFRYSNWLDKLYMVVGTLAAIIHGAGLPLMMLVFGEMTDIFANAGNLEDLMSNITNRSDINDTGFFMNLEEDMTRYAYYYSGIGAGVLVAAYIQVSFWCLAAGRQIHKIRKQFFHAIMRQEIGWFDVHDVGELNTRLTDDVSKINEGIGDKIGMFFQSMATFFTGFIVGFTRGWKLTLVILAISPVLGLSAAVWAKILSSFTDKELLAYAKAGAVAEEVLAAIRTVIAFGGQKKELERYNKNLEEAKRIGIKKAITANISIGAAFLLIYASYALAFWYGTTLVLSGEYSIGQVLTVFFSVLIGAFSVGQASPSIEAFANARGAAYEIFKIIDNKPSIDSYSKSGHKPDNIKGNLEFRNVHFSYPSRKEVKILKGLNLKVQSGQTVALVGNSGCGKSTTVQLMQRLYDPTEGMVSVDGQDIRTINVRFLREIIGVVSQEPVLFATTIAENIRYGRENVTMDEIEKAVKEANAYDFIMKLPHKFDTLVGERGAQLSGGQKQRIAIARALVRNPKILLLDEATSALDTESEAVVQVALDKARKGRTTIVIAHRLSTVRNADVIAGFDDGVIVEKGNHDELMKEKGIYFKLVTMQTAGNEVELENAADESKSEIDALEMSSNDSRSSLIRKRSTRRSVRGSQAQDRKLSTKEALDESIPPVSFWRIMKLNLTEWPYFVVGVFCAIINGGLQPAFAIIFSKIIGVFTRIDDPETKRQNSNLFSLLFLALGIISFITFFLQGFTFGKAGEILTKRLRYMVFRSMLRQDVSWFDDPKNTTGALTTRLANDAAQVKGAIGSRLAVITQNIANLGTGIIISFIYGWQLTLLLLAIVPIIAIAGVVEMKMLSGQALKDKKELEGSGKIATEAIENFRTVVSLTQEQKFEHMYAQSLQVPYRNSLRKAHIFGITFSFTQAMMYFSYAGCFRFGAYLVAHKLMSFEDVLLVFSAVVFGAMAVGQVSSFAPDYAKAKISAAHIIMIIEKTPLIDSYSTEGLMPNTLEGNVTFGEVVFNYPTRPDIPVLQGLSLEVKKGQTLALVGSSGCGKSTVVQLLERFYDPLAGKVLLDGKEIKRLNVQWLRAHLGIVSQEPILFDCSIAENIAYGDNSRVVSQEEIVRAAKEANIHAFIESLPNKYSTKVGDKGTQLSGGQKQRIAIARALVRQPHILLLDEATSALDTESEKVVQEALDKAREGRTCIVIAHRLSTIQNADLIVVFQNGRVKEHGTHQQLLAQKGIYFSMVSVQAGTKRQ
T3 sequence (Q12809 whole entry): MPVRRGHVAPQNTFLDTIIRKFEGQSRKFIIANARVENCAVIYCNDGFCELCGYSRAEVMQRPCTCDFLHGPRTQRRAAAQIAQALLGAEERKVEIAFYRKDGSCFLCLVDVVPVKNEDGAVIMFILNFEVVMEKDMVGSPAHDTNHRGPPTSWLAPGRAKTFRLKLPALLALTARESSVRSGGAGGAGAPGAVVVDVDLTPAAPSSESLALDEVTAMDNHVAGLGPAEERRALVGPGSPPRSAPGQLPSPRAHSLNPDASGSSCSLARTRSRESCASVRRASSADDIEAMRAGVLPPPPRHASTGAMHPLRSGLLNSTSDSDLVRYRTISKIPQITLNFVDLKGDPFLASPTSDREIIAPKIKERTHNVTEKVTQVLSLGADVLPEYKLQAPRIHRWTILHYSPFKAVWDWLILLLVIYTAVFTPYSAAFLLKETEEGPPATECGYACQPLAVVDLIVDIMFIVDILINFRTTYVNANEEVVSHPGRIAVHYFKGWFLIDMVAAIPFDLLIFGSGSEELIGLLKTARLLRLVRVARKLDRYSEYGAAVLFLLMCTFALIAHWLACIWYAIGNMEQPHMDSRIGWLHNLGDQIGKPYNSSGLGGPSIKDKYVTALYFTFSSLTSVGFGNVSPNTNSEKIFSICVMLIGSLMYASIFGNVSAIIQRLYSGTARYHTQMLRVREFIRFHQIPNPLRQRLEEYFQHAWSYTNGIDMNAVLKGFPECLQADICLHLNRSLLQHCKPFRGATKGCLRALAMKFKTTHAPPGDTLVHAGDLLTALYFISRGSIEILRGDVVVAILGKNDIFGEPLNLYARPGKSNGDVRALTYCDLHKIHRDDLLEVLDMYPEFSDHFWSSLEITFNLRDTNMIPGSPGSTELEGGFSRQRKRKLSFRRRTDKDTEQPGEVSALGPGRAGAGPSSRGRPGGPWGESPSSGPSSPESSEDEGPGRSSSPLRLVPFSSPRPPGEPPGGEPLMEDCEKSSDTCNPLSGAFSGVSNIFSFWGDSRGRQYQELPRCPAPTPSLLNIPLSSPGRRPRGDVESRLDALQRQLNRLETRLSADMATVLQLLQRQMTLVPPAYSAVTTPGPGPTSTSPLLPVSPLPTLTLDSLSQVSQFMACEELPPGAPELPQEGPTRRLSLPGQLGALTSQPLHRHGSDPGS

| SMILES | IC50 [1] | IC50 [2] | efflux ratio ([3]; read-out: ER (efflux ratio)) | Papp ([3]; read-out: Permeability) | IC20 [4] |
| --- | --- | --- | --- | --- | --- |
| Cc1nc(N[C@@H]2CCCN(CCCC(=O)N3CCC(O)C3)C2)nnc1-c1ccc2c(c1O)CCO2 (mixture of isomers) [Example 15, 1-(3-Hydroxypyrrolidin-1-yl)-4-[rac-(3R)-3-[[6-(4-hydroxy-2,3-dihydrobenzofuran-5-yl)-5-methyl-1,2,4-triazin-3-yl]amino]-1-piperidyl]butan-1-one; formic acid] | 58 nM | 33 nM |  |  |  |
| Cc1nc(N[C@@H]2CCCN(CC3(O)CC3)C2)nnc1-c1ccc2c(c1O)CCO2 [Example 4, 5-[3-[[(3R)-1-[(1-Hydroxycyclopropyl)methyl]-3-piperidyl]amino]-5-methyl-1,2,4-triazin-6-yl]-2,3-dihydrobenzofuran-4-ol] | 17 nM | 33 nM |  |  |  |
| COCCN1CCC[C@@H](Nc2nnc(-c3ccc4c(c3O)CCO4)c(C)n2)C1 [Example 5, 5-[3-[[(3R)-1-(2-Methoxyethyl)-3-piperidyl]amino]-5-methyl-1,2,4-triazin-6-yl]-2,3-dihydrobenzofuran-4-ol; formic acid salt] | 19 nM | 15 nM |  |  |  |
| CCN1C[C@@H](O)C[C@@H](Nc2nnc(-c3ccc4c(c3O)CCO4)c(C)n2)C1 [Example 6, (3S,5R)-1-Ethyl-5-[[6-(4-hydroxy-2,3-dihydrobenzofuran-5-yl)-5-methyl-1,2,4-triazin-3-yl]amino]piperidin-3-ol] | 28 nM | 23 nM |  |  |  |
| COC(C)CN1CCC[C@@H](Nc2nnc(-c3ccc4c(c3O)CCO4)c(C)n2)C1 (stereo partly drawn) [Example 7, 5-[5-Methyl-3-[[(3R)-1-(2-methoxypropyl)-3-piperidyl]amino]-1,2,4-triazin-6-yl]-2,3-dihydrobenzofuran-4-ol] | 62 nM | 40 nM |  |  |  |
| Cc1nc(N[C@@H]2CCCN(C3COC3)C2)nnc1-c1ccc2c(c1O)CCO2 [Example 8, 5-[5-Methyl-3-[[(3R)-1-(oxetan-3-yl)-3-piperidyl]amino]-1,2,4-triazin-6-yl]-2,3-dihydrobenzofuran-4-ol] | 120 nM |  |  |  |  |
| CNC(=O)CCCN1CCC[C@@H](Nc2nnc(-c3ccc4c(c3O)CCO4)c(C)n2)C1 [Example 10, 4-[(3R)-3-[[6-(4-hydroxy-2,3-dihydrobenzofuran-5-yl)-5-methyl-1,2,4-triazin-3-yl]amino]-1-piperidyl]-N-methyl-butanamide] | 27 nM | 40 nM | 8.5 | 12.2 ×10⁻⁶ cm/s | 2900 nM |
| Cc1nc(N[C@@H]2CCCN(CCCC(=O)N(C)C)C2)nnc1-c1ccc2c(c1O)CCO2 [Example 12, 4-[(3R)-3-[[6-(4-Hydroxy-2,3-dihydrobenzofuran-5-yl)-5-methyl-1,2,4-triazin-3-yl]amino]-1-piperidyl]-N,N-dimethyl-butanamide] | 53 nM | 30 nM |  |  |  |
| Cc1nc(N[C@@H]2CCCN(CCCC(=O)N(C)CCO)C2)nnc1-c1ccc2c(c1O)CCO2 [Example 14] | 76 nM |  |  |  |  |
| Cc1nc(N[C@@H]2CCCN(CCCC(=O)N3CCOCC3)C2)nnc1-c1ccc2c(c1O)CCO2 [Example 16, 4-[(3R)-3-[[6-(4-Hydroxy-2,3-dihydrobenzofuran-5-yl)-5-methyl-1,2,4-triazin-3-yl]amino]-1-piperidyl]-1-morpholino-butan-1-one] | 40 nM | 46 nM |  |  |  |
| Cc1nc(N[C@@H]2CCCN(CCn3cccn3)C2)nnc1-c1ccc2c(c1O)CCO2 [Example 17, 5-[5-Methyl-3-[[(3R)-1-(2-pyrazol-1-ylethyl)-3-piperidyl]amino]-1,2,4-triazin-6-yl]-2,3-dihydrobenzofuran-4-ol] | 35 nM | 76 nM |  |  |  |
| Cc1nc(N[C@@H]2CCCN(CCCc3nnn[nH]3)C2)nnc1-c1ccc2c(c1O)CCO2 [Example 18, 5-[5-Methyl-3-[[(3R)-1-[3-(1H-tetrazol-5-yl)propyl]-3-piperidyl]amino]-1,2,4-triazin-6-yl]-2,3-dihydrobenzofuran-4-ol; formic acid] | 23 nM | 23 nM |  |  |  |
| Cc1nc(N[C@@H]2CCCN(CCCC#N)C2)nnc1-c1ccc2c(c1O)CCO2 [Example 19, 4-[(3R)-3-[[6-(4-Hydroxy-2,3-dihydrobenzofuran-5-yl)-5-methyl-1,2,4-triazin-3-yl]amino]-1-piperidyl]butanenitrile] | 20 nM | 26 nM |  |  |  |
| Cc1nc(N[C@@H]2CCCN(CCCc3ncco3)C2)nnc1-c1ccc2c(c1O)CCO2 [Example 20, 5-[5-Methyl-3-[[(3R)-1-(3-oxazol-2-ylpropyl)-3-piperidyl]amino]-1,2,4-triazin-6-yl]-2,3-dihydrobenzofuran-4-ol] | 16 nM | 18 nM |  |  |  |
| Cc1nc(N[C@@H]2CCCN(CCc3nnn[nH]3)C2)nnc1-c1ccc2c(c1O)CCO2 [Example 21, 5-[5-Methyl-3-[[(3R)-1-[2-(1H-tetrazol-5-yl)ethyl]-3-piperidyl]amino]-1,2,4-triazin-6-yl]-2,3-dihydrobenzofuran-4-ol] | 20 nM | 166 nM |  |  |  |
| Cc1nc(N[C@@H]2CCCN(CCCS(C)(=O)=O)C2)nnc1-c1ccc2c(c1O)CCO2 [Example 22, 5-[5-Methyl-3-[[(3R)-1-(3-methylsulfonylpropyl)-3-piperidyl]amino]-1,2,4-triazin-6-yl]-2,3-dihydrobenzofuran-4-ol] | 58 nM | 54 nM |  |  |  |

Reference: patent publication US20260200901A1, “NOVEL COMPOUNDS AS MODULATORS OF NLRP3 INHIBITION” (Hoffmann-La Roche Inc., priority 2022, published 2026)
